Reference: patent US20250188077A1, “CRYSTAL FORM OF 1H-PYRROLO[2,3-C]PYRIDINE COMPOUND AND PREPARATION METHOD THEREFOR” (JUMBO DRUG BANK CO., LTD., priority 2022, published 2025)
Where two headings read alike, the source gives them in different places.

Legend:
[1] = Hygroscopicity study by dynamic vapor sorption (DVS); format: physicochemical; settings: 80% RH/25° C.
Protocol: Instrument model: SMS DVS Intrinsic dynamic vapor sorption instrument
Test conditions: The sample (10 mg) was taken and placed in a DVS sample plate for testing.
Detailed DVS parameters were as follows:
Drying: 25° C., 0% RH drying for 2 hours
Range of Rh (%) test step: 0%-95%-0% RH
SMS DVS intrinsic dynamic vapor adsorption instrument
A sample (10 mg) was taken and placed in a DVS sample plate for testing.

[2] = Solid stability test (XRPD crystal form after storage); format: physicochemical
Source text: The samples placed at high temperature and humidity were sampled for XRPD testing on the 10th and 30th day; The samples exposed to light were put into a clean surface dish, laid into a thin layer, covered with a quartz glass cover, and sampled for XRPD testing on the 5th and 10th days; For the long-term test and accelerated test (shading), each sample were put into a double-layer LDPE bag, each layer of LDPE bag was respectively buckled and sealed, and then the LDPE bag was put into an aluminum foil bag with a package of desiccant and heat sealed. The samples were respectively placed at 25° C./60% RH, 30° C./65% RH and 40° C./75% RH for exploration, the test results were compared with the initial test results of 0 day and the test results were shown in Table 7 below.

[3] = system: BCR-FMS-BaF3 cells; assay: CellTiter-Glo luminescent cell viability / cell proliferation assay; format: cell-based; settings: for IC50: 72 h, BCR-FMS-BaF3, 3 days incubation
Source text: Luminescent Cell Viability Assay (CellTiter-Glo® methold) from Promega was used for cell proliferation detection. CellTiter-Glo® Luminescent Cell Viability Assay (CellTiter-Glo® luminescent cell viability detection kit) was a homogeneous rapid detection method for detecting the viability of living cells in culture by quantitative determination of ATP. ATP was an indicator of the metabolism of living cells. Cell lysis and the resulting light signal were proportional to the amount of present ATP, and the amount of ATP is directly proportional to the number of living cells in the culture. The higher the fluorescence reading indicated the higher ATP content in the cell and also the higher the cell viability. Therefore, the inhibition degree of compound on cell proliferation can be monitored by fluorescence value. 1) The compound was diluted 2 mM with 100% DMSO, that is, 5 μL of 10 mM compound storage solution was taken and put into the first column of 96-well compound plate, then 20 μL of 100% DMSO were added and mixed well; 2) 20 μL of 100% DMSO was added to the second column to the tenth column of 96-well compound plate; 3) 5 μL of compound was taken from the first column to the second column and mixed well, and then 5 μL of compound was taken from the second column to the third column and mixed well. The above steps were repeated to the ninth column to complete the gradient dilution of the compound; 4) Preparation of compound working solution: 2 μL of compound per well from the second column of the compound plate was taken to a new 96 well compound plate, and 78 μL of cell culture medium per well was added; 2 μL of 100% DMSO from the negative control well was taken and 78 μL of cell culture medium was added; and 5) The compound concentration was the final concentration, in which the blank control well was the culture medium well without cells, and the negative control was 0.5% DMSO. 1) The BCR-FMS-BaF3 cell suspension was collected and centrifuged at 1000 rpm (revolutions per minute) for 5 minutes. The supernatant was removed, cells were resuspended with preheated medium and counted. After counting, the cell suspension was diluted with cell culture medium to the required density. Each well was inoculated with 80 μL cell suspension into 96 well cell culture plate. 2) On the day of the experiment, 20 μL of compound working solution was added to the cell plate and incubated for 3 days at 37° C. in a 5% CO2 incubator. [table] 3) After the incubation is completed, 20 μL of CTG detection reagent was added to each well of the cell plate, and incubated at 25° C. for 10 minutes. After the incubation is completed, EnVision was used for luminescence signal detection. […]

[4] = Solid stability test (XRPD crystal form after storage); format: physicochemical; settings: 40° C./75% RH(open)

Classification of hygroscopicity [1]: slight hygroscopicity | ΔW (hygroscopic weight gain) ([1]; DVS): 0.28% | Crystal form (XRPD) ([2]; 0 days (initial)): crystal form B | Crystal form (XRPD) ([2]; 25° C./60% RH, 3 M): crystal form B | Crystal form (XRPD) ([2]; 25° C./60% RH, 6 M): crystal form B | Crystal form (XRPD) ([2]; 25° C./60% RH, 24 M): crystal form B | Crystal form (XRPD) ([2]; 30° C./65% RH, 1 M): crystal form B | Crystal form (XRPD) ([2]; 30° C./65% RH, 3 M): crystal form B | Crystal form (XRPD) ([2]; 30° C./65% RH, 6 M): crystal form B | Crystal form (XRPD) ([2]; high humidity (25° C./relative humidity 92.5%, open), 10 days): crystal form B | Crystal form (XRPD) ([2]; high humidity (25° C./relative humidity 92.5%, open), 30 days): crystal form B | Crystal form (XRPD) ([2]; high temperature (60° C., open), 10 days): crystal form B | Crystal form (XRPD) ([2]; high temperature (60° C., open), 30 days): crystal form B | Solid stability (conclusion) ([2]; influencing factors, light, acceleration and long-term experimental conditions): good stability | Crystal form (XRPD) ([2]; strong light (5000 lx and UV intensity 90 w/cm^2, open), 5 days): crystal form B | Crystal form (XRPD) ([2]; strong light (5000 lx and UV intensity 90 w/cm^2, open), 10 days): crystal form B | IC50 ([3]; mean of N = 1 and N = 2, read-out: IC50 (nM) Mean value ± SD): 2.46 ± 0.008 nM | IC50 ([3]; replicate N = 1, read-out: IC50 (nM) N = 1): 2.46 nM | IC50 ([3]; replicate N = 2, read-out: IC50 (nM) N = 2): 2.47 nM | Crystal form (XRPD) ([4]; 1 M): crystal form B | Crystal form (XRPD) ([4]; 3 M): crystal form B | Crystal form (XRPD) ([4]; 6 M): crystal form B
Compound: CNC(=O)c1nccc2c(-c3cnc(Nc4ccc(OC5CC5)nc4)cc3C)c[nH]c12.Cl
Inhibition of proliferation of BCR-FMS-BaF3 cells (conclusion in words) ([3]; BCR-FMS-BaF3 cells): significantly inhibit the proliferation
